Measurements published in ChEMBL document CHEMBL5576054, “Lead compound profiling for small molecule inhibitors of the REV1-CT/RIR Translesion synthesis Protein-Protein interaction” (Bioorg Med Chem, 2024).
≈ marks a conversion by molar mass, not a printed value. Calls of active or inactive are those of the source. No cut-off for these calls is given here.

What was measured:
[1] = Toxicity in BALB/c nude mouse assessed as decrease in animal weight at 200 mg/kg, po qd measured for 2 days; type: organism-based; conditions: in vivo, 48 h, time 2 day
[2] = Cmax in CD-1 mouse at 100 mg/kg, ip by LC-MS/MS analysis; type: ADME, organism-based; conditions: in vivo
[3] = MRT (infinity) in CD-1 mouse at 100 mg/kg, ip by LC-MS/MS analysis; type: ADME, organism-based; conditions: in vivo
[4] = Metabolic stability in human liver microsomes assessed as intrinsic clearance at 1 uM incubated upto 60 mins by LC-MS/MS analysis; type: ADME, Microsome; conditions: 1 h
[5] = Toxicity in BALB/c nude mouse assessed as visual signs of toxicity at 30 to 100 mg/kg, po qd for 7 days; type: organism-based; conditions: in vivo, 168 h, dose 30-100 mg/kg, time 7 day
[6] = Dose normalized AUClast in CD-1 mouse at 1 mg/kg, iv by LC-MS/MS analysis; type: ADME, organism-based; conditions: in vivo
DNA repair protein REV1 = molecular target: T1, DNA repair protein REV1 (Homo sapiens, UniProt Q9UBZ9); assay: Binding affinity to C-terminal human REV-1 assessed as dissociation constant incubated for 30 mins by MST assay
T1 sequence (Q9UBZ9 whole entry): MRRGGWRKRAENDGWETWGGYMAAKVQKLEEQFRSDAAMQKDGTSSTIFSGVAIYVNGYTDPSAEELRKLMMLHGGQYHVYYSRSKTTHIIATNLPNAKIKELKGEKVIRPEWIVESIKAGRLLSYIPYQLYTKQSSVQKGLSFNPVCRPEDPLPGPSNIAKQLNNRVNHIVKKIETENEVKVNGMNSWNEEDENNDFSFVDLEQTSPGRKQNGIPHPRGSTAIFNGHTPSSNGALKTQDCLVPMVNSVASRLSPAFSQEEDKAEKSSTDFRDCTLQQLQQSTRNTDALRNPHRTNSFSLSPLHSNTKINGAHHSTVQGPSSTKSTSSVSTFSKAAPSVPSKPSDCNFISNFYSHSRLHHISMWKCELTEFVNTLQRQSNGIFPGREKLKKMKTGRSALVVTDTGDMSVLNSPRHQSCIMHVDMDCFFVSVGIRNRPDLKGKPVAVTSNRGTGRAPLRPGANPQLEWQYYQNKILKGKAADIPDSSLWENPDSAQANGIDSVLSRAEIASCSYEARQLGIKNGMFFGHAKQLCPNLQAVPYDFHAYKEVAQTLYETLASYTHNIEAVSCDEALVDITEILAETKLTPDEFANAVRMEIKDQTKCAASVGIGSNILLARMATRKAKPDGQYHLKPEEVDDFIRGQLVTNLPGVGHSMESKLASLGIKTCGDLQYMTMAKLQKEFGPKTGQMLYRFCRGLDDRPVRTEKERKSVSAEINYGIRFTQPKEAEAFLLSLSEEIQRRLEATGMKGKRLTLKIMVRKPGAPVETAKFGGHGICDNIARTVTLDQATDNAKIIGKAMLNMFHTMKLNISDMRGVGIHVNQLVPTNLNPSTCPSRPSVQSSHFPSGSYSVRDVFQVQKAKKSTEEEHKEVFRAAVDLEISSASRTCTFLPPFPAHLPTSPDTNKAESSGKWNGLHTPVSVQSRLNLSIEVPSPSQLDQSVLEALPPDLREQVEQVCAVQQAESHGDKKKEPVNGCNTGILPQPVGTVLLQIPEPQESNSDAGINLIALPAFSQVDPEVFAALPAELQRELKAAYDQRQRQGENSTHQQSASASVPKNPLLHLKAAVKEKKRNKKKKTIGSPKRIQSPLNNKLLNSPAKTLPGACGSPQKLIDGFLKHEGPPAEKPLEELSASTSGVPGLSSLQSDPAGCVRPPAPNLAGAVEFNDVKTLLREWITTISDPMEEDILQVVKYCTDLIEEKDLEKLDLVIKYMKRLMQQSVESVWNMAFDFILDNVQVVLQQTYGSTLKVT

[7] = Area under curve extrapolated from the last time point to infinity in CD-1 mouse at 100 mg/kg, ip by LC-MS/MS analysis; type: ADME, organism-based; conditions: in vivo
[8] = AUClast in CD-1 mouse at 100 mg/kg, ip by LC-MS/MS analysis; type: ADME, organism-based; conditions: in vivo
[9] = Area under curve extrapolated from the last time point to infinity in CD-1 mouse at 1 mg/kg, iv by LC-MS/MS analysis; type: ADME, organism-based; conditions: in vivo
[10] = Half life in CD-1 mouse at 1 mg/kg, iv by LC-MS/MS analysis; type: ADME, organism-based; conditions: in vivo
[11] = Tmax in CD-1 mouse at 100 mg/kg, ip by LC-MS/MS analysis; type: ADME, organism-based; conditions: in vivo
[12] = Disruption of C-terminal REV-1/FAM-tagged Pol kappa RIR (unknown origin) interaction incubated for 1 hr by FP assay; set-up: species or system Homo sapiens
[13] = AUC (infinity) in CD-1 mouse at 100 mg/kg, ip by LC-MS/MS analysis; type: ADME, organism-based; conditions: in vivo
[14] = Toxicity in BALB/c nude mouse assessed as animal death at 200 mg/kg, po qd measured for 3 days; type: organism-based; conditions: in vivo, 72 h, time 3 day
[15] = AUClast in CD-1 mouse at 1 mg/kg, iv by LC-MS/MS analysis; type: ADME, organism-based; conditions: in vivo
[16] = Volume of distribution at steady state in CD-1 mouse at 1 mg/kg, iv by LC-MS/MS analysis; type: ADME, organism-based; conditions: in vivo
[17] = Toxicity in BALB/c nude mouse administered orally once daily for 7 days; conditions: in vivo, route po, time 7 day
[18] = Toxicity in BALB/c nude mouse assessed as general impairment at 30 to 100 mg/kg, po qd for 7 days; type: organism-based; conditions: in vivo, 168 h, dose 30-100 mg/kg, time 7 day
[19] = MRT (infinity) in CD-1 mouse at 1 mg/kg, iv by LC-MS/MS analysis; type: ADME, organism-based; conditions: in vivo
[20] = AUC (infinity) in CD-1 mouse at 1 mg/kg, iv by LC-MS/MS analysis; type: ADME, organism-based; conditions: in vivo
[21] = C0 in CD-1 mouse at 1 mg/kg, iv by LC-MS/MS analysis; type: ADME, organism-based; conditions: in vivo
[22] = Half life in CD-1 mouse at 100 mg/kg, ip by LC-MS/MS analysis; type: ADME, organism-based; conditions: in vivo
[23] = Dose normalized AUClast in CD-1 mouse at 100 mg/kg, ip by LC-MS/MS analysis; type: ADME, organism-based; conditions: in vivo
[24] = Toxicity in BALB/c nude mouse assessed as effect on body weight at 30 to 100 mg/kg, po qd for 7 days; type: organism-based; conditions: in vivo, 168 h, dose 30-100 mg/kg, time 7 day
[25] = Oral bioavailability in CD-1 mouse at 100 mg/kg by LC-MS/MS analysis; type: ADME, organism-based; conditions: in vivo
[26] = Metabolic stability in human liver microsomes assessed as half life at 1 uM incubated upto 60 mins by LC-MS/MS analysis; type: ADME, Microsome; conditions: 1 h
SW1271 [27] = assay: Synergistic inhibition of cell viability in human SW1271 cells at 20 uM incubated for 5 days in presence of Olaparib/Temozolomide by Cell Titer Glo assay; type: functional, cell-based; conditions: time 5.0 day
MEF [28] = assay: Synergistic inhibition of cologenic survival in mouse MEF cells at 10 uM incubated for 24 hrs followed by fresh media replacement without compound measured after 4 days in presence of cisplatin by crystal violet staining based analysis; type: functional, cell-based
MEF [29] = assay: Synergistic inhibition of cologenic survival in mouse MEF cells with Rev1-/- at 10 uM incubated for 24 hrs followed by fresh media replacement without compound measured after 4 days in presence of cisplatin by crystal violet staining based analysis; type: functional, cell-based
MEF [30] = assay: Inhibition of cologenic survival in mouse MEF cells at 10 uM incubated for 24 hrs followed by fresh media replacement without compound measured after 4 days by crystal violet staining based analysis; type: functional, cell-based
SW1271 [31] = assay: Synergistic inhibition of cell viability in human SW1271 cells with Rev1-/- at 20 uM incubated for 5 days in presence of Olaparib/Temozolomide by Cell Titer Glo assay; type: functional, cell-based; conditions: time 5.0 day
A549 = assay: Inhibition of cologenic survival in human A549 cells incubated for 8 to 10 days by crystal violet staining based analysis; type: functional, cell-based; conditions: time 8-10 day
[32] = Clearance in CD-1 mouse at 1 mg/kg, iv by LC-MS/MS analysis; type: ADME, organism-based; conditions: in vivo
[33] = Solubility of compound in PBS at pH 7.4; type: physicochemical
[34] = Solubility of compound in PBS at pH 4; type: physicochemical; conditions: buffer

Row | Compound | Activity [1] | Cmax [2] [ng/mL] | MRT inf [3] [min] | intrinsic clearance (CLint) [4] [µL/min/mg] | Activity [5] | AUClast/dose [6] [ng·h/mL] | Kd (DNA repair protein REV1) [µM] | %AUCextra [7] [%] | AUC(0-t) [8] [ng·h/mL] | %AUCextra [9] [%] | Tmax [11] [min] | IC50 [12] [µM] | AUC(0-inf) [13] [ng·h/mL] | Activity [14] | AUC(0-t) [15] [ng·h/mL] | MTD at 168 h [17] [mg/kg] | Activity [18] | AUC(0-inf) [20] [ng·h/mL] | half-life [22] [min] | AUClast/dose [23] [ng·h/mL] | also measured
1 | CCCc1cc(C(=O)OC)c(NC(=O)C2CCN(C(C)=O)CC2)s1 | Toxic | 2780 | 169 | 18.8 | Non-Toxic | 37.3 | 6.7 | 1.74 | 2280 | 2.39 | 15 | 4.1 | 2320 | Toxic | 37.3 | ≤ 100 | Non-Toxic | 38.2 | 340 | 22.8 | t1/2 ([10]; mouse, iv, 1 mg/kg): 16.9 min; Vdss ([16]; mouse, iv, 1 mg/kg): 5.96 L/kg; MRT ([19]; mouse, iv, 1 mg/kg): 13.5 min; C0 ([21]; mouse, iv, 1 mg/kg): 200 ng/mL; Activity [24]: Non-Toxic; F [25]: 60.8%
2 | Nc1ccc(/N=N/c2cccc(F)c2F)c(N)n1 | Toxic | 12500 | 124 | > 300 | Non-Toxic | 96.7 | 21 | 0.58 | 25300 | 0.77 | 25 | 0.4 | 25500 | Toxic | 97 | ≤ 100 | Non-Toxic | 97 | 269 | 253 | t1/2 [26]: < 2.3 min; inhibition (SW1271 [27]): Active; inhibition (MEF [28]): Active; inhibition (MEF [29]): inactive; half-life ([10]; CD-1, mouse): 20.3 min; inhibition (MEF [30]): inactive; inhibition (SW1271 [31]): inactive; inhibition (A549): Active; Vd ([16]; CD-1, mouse, read-out: Vdss): 2.81 L/kg; clearance [32]: 177 mL/min/kg; solubility [33]: 8.5 µM (≈ 2.12 µg/mL); MRT inf ([19]; CD-1, mouse): 15.8 min; C0 ([21]; CD-1, mouse, read-out: C0): 412 ng/mL; solubility [34]: 4.5 µM (≈ 1.12 µg/mL); Activity [24]: Non-Toxic
